Source: patent US10350210B2, “EGFR and ALK dual inhibitor” (PRECEDO PHARMACEUTICALS CO., LTD, priority 2015, dated 2019)

Key:
H1975 [1] = assay: Effect on cell cycle (PI staining, flow cytometer), H1975; format: cell-based, human; conditions: H1975 (EGFR L858R/T790M), 24 hours
Description: In order to study which growth phase the cell was halted after administration of the drugs, five cell lines including non-small cell lung cancer cell line A549 (expressing wild-type EGFR gene), non-small cell lung cancer cell line H1975 (expressing EGFR L858R/T790M double mutant gene), non-small cell Lung cancer cell line PC-9 (expressing EGFR delE746_A750 mutant gene), non-small cell lung cancer cell line H3255 (expressing EGFR L858R mutant gene) and non-small cell lung cancer cell NCI-H3122 (expressing ALK gene) were tested for effect of Compound 1 on cell cycle distribution. Two cell lines including non-small cell lung cancer cell NCI-H3122 (expressing ALK gene) and non-small cell lung cancer cell H1975 (expressing EGFR L858R/T790M double mutant gene) were tested for effect of Compound 10 on cell cycle distribution. […]

A431 = assay: Growth of cancer cells (Cell Titer-Glo viability), A431; format: cell-based; conditions: Homo sapiens, A-431; A431 (wild-type EGFR), 72 hrs; read-out: GI50
H3122 = assay: Effect on cell apoptosis (Western Blot, PARP and Caspase 3 cleavage), H3122; format: cell-based, human; conditions: H3122 (ALK gene), 24 hours
Description: (§1) In order to confirm whether the death of cells is through apoptosis or necrosis after administration of drugs, non-small cell lung cancer cell A549 (expressing wild-type EGFR gene), non-small cell lung cancer cell line H1975 (expressing EGFR L858R/T790M double mutant gene), non-small cell lung cancer cell line H3255 (expressing EGFR L858R mutant gene), non-small cell lung cancer cell line H3122 (expressing ALK gene) cell line, and non-small cell lung cancer cell line PC-9 (expressing EGFR delE746_A750 mutant gene) were tested for effect of Compound 1 on cleavage of poly ADP-ribose polymerase PARP which is a DNA repair enzyme and Caspase 3, which were closely related to cell apoptosis. […] Western Blot was used to detect the effect of various concentrations of drugs at various time points on cleavage of poly ADP-ribose polymerase PARP which is a DNA repair enzyme and Caspase 3.

H1975 [2] = assay: Effect on cell apoptosis (Western Blot, PARP and Caspase 3 cleavage), H1975; format: cell-based, human; conditions: H1975 (EGFR L858R/T790M), 24 hours
Description: as §1

BaF3-NPM-ALK = assay: Cell growth (Cell Titer-Glo viability), BaF3-NPM-ALK; format: cell-based; conditions: Mus musculus; BaF3-NPM-ALK (stably expressing ALK kinase), 72 hrs
NCI-H2122 = assay: Growth of cancer cells (Cell Titer-Glo viability), NCI-H2122; format: cell-based; conditions: Homo sapiens; NCI-H2122 (wild-type EGFR), 72 hrs
BaF3-TEL-ALK = assay: Cell growth (Cell Titer-Glo viability), BaF3-TEL-ALK; format: cell-based; conditions: Mus musculus; BaF3-TEL-ALK (stably expressing ALK kinase), 72 hrs
Procedure, shortened: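 Mouse BaF3 cells retrovirally transduced with human kinase fused to N-terminal TEL fragment, then IL-3 withdrawn so proliferation depends on the transgene. HCC827 carries EGFR del19 and NCI-H3255 EGFR L858R. Viable cells were quantified by CellTiter-Glo chemiluminescence on a microplate reader.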

Row | GI50 (A431) [nM] | GI50 (BaF3-NPM-ALK) [nM] | GI50 (NCI-H2122) [nM] | GI50 (BaF3-TEL-ALK) [nM] | Structure (SMILES) | effect on cell cycle distribution (H1975 [1]) | concentration at which evident cleavage of PARP and Caspase 3 could be observed (H3122) [µM] | concentration at which cleavage of PARP and Caspase 3 could be observed (H1975 [2]) [µM]
1 | 62 | < 0.3 | 9 | < 0.3 | C=CC(=O)Nc1cc(Nc2ncc(Cl)c(Nc3ccccc3S(=O)(=O)C(C)C)n2)c(OC)cc1N1CCN(CC)CC1 [Compound 1, N-(5-(5-chloro-4-(2-(isopropylsulfonyl)phenylamino)pyrimidin-2-ylamino)-2-(4-ethylpiperazin-1-yl)-4-methoxyphenyl)acrylamide] | halt the cells in G0-G1 phase | 0.03 | 0.3
2 | 170 | 1 | 190 | 3 | C=CC(=O)Nc1cc(Nc2ncc(Cl)c(Nc3ccccc3S(=O)(=O)C(C)C)n2)c(OC)cc1N1CCCN(C)CC1 [Compound 10, N-(5-(5-chloro-4-(2-(isopropylsulfonyl)phenylamino)pyrimidin-2-ylamino)-4-methoxy-2-(4-methyl-1,4-homopiperazin-1-yl)phenyl)acrylamide] | halt the cells in G0-G1 phase | 1 | 0.3
